Results published in US20080220066A1 (HENDERSON MORLEY PLC, priority 2005, published 2008).
In brackets after ≈: the same amount, converted by molar mass. Several values for one entry are separate records, joined by “and”; a condition that tells them apart may be missing. Identical values can stand only once. Like-named read-outs stand apart in the source and are kept apart here.

Legend:
[1] = Experimental: Permeation experiments were carried out using all glass Franz-type cells incorporating callous plantar skin between a donor and receptor phase. Callous cuttings of approximately 0.6 cm diameter were required to fit the customised ‘franz’ cells used. Consequently, an in vitro permeation study was conducted that used 5 cells per gel treatment, with no more than a total of 15 cells being run simultaneously. […] An infinite dose of gel (˜1 g) was added to each donor compartment via syringe and PEG400, being used as a receptor phase in each, thereby enabling adequate ‘sink’ conditions, limiting hydrodynamic boundary effects and tissue swelling effects. The applied gel was occluded with glass cover slips and the cells stirred in a thermostatically controlled water bath, maintaining the skin temperature at 32° C. […] A total of five replicates were carried our for each gel. All samples were immediately analysed by HPLC.
The breakthrough time was taken from the point at which permeant was first detected in the receptor phase (dependent on the MDL for each permeant). Lag times were calculated by extrapolating the linear section of the cumulative amount permeated (steady state flux) to the X-axis (time).

MRC5 cells [2] = experiment: MRC5 cell morphology / tolerance; settings: Frusemide 1.0 mg/ml; Digoxin 0.05 ug/ml; combined dosage at individual ID 50; 72 hours
[3] = for Flux: Q24 divided by 24
Adenovirus = experiment: 50% plaque inhibitory concentration, Adenovirus; settings: unidentified adenovirus, A549, read-out: Digoxin IC50
[4] = system: Herpes simplex virus (HSV); experiment: HSV virus yield (infectious virus particle production); type: cell-based; settings: solvent as listed per compound; Torasemide at 90 μg/ml
MRC5 cells [5] = settings: uninfected cells; drug(s) at VZV ID 50 concentrations
[6] = system: Varicella Zoster Virus (VZV)
MRC5 cells [7] = experiment: MRC5 cell replication; settings: Frusemide 1.0 mg/ml; Digoxin 0.05 μg/ml; both at their VZV ID50 concentrations
[8] = system: Varicella Zoster Virus (VZV); experiment: microbe, parasite or virus in culture; settings: Human alphaherpesvirus 3, MRC5, read-out: Digoxin IC50
Cytomegalovirus = experiment: 50% plaque inhibitory concentration, Cytomegalovirus; settings: Human betaherpesvirus 5, MRC5, read-out: Digoxin IC50
[9] = system: Herpes simplex virus (HSV); experiment: HSV standard plaque inhibition assay; type: cell-based
Description: Using Herpes simplex virus (HSV), 50% plaque inhibitory dose (1D50) were established using the standard plaque inhibition assay.

[10] = Saturated solubility in solvents and co-solvent mixes at 32° C
physchem = settings: 32 °C, aqueous with cosolvent or surfactant or cyclodextrin, thermodynamic from solid
[11] = ‘Max’ Furosemide Gel Formulation

## C[C@H]1O[C@@H](O[C@H]2[C@@H](O)C[C@H](O[C@H]3[C@@H](O)C[C@H](O[C@H]4CC[C@@]5(C)[C@H](CC[C@@H]6[C@@H]5C[C@@H](O)[C@]5(C)[C@@H](C7=CC(=O)OC7)CC[C@]65O)C4)O[C@@H]3C)O[C@@H]2C)C[C@H](O)[C@@H]1O [Digoxin]
Feline herpesvirus; each drug at its IC50, alone or both combined, No Drug 50
  Virus particles per cell: 0.75
Feline herpesvirus; each drug at its IC50, individually or in combination
  production of infectious virus reduced by: 98.5%
Feline herpesvirus; each drug individually at its IC50
  remaining low level of virus replication: 0.5%
[1]; 40:40:20 Prototype gel
  Lag time: 100 h
  Permeation co-efficient: 1.1 × 10^−3 cmhr^−1
  Steady state flux: 1.14 ± 0.28 μc cm^−2hr^−1
[1]; Dig/Fur Ampule Gel Formulation
  Breakthrough time: ~24 h
  Lag time: 82 h
  Steady state flux: 0.069 μc cm^−2hr^−1
[1]; at 144 hours
  reduction of amount permeated, prototype versus ‘Max’ Digoxin gel: 3.36 fold
[1]; prototype gel
  steady state of flux: 1.14±0.28 μg cm^−2 hr^−1
[1]; prototype gel, at 144 hours
  amount permeated: 30 μg cm^−2
[1]; ‘Max’ Digoxin Gel Formulation
  Lag time: 18 h
  Steady state flux: 1.015 μc cm^−2hr^−1
[1]; ‘Max’ Digoxin Gel Formulation (50:40:10, 8% HPC, pH 5)
  Breakthrough time: ~1 h
[1]; ‘Max’ Digoxin gel formulation
  steady state of flux: 1.015 μg cm^−2 hr^−1
[1]; ‘Max’ Digoxin gel, at 144 hours
  amount permeated: 101 μg cm^−2
[1]; [11]
  Lag time: 68 h
  Steady state flux: 0.455 μc cm^−2hr^−1
[1]; ‘Max’ Furosemide Gel Formulation (50:20:20:10, 8% HPC, pH 5)
  Breakthrough time: ~12 h
MRC5 cells [2]
  tolerance by MRC5 cells (morphology, replication): very well tolerated
[3]; 40:40:20 gels
  maximum concentrations observed in the receptor phase: 42.47 µg/mL
[3]; Ampule Formulation
  Release date: 8.1 μg cm^−2 h^0.5
  Flux: 1.4 μg cm^−2 h^−1
[3]; Ampule Formulation (8% HPC)
  Q24: 34 μg cm^−2
[3]; Gel 1:1, pH 7
  % applied dose: 1.6%
  Release Rate: 3.48 μg cm^−2 h^0.5
  Flux: 0.59 μg cm^−2 h^−1
[3]; Gel 1:1, prototype 40:40:20 mix, pH 7, 24 h
  Q24: 14.07 μg cm^−2
[3]; Gel 14:1 (F:D), prototype 40:40:20 mix, […] 981NF, pH 5, 24 h
  Q24: 42.47 μg cm^−2
[3]; Gel 14:1, pH 5
  Flux: 1.77 μg cm^−2 h^−1
[3]; Gel 14:1, pH 5, assuming 2 g of gel in donor
  % applied dose: 4.0%
[3]; Gel 14:1, pH 5, gradient of square root of time plot
  Release Rate: 10.18 μg cm^−2 h^0.5
[3]; Gel 14:1, pH 7
  % applied dose: 1.6%
  Flux: 0.73 μg cm^−2 h^−1
[3]; Gel 14:1, pH 9
  % applied dose: 0.1%
  Flux: 0.14 μg cm^−2 h^−1
[3]; Gel 14:1, prototype 40:40:20 mix, pH 7, 24 h
  Q24: 17.62 μg cm^−2
[3]; Gel 14:1, prototype 40:40:20 mix, pH 9, 24 h
  Q24: 3.34 μg cm^−2
[3]; HPC Formulation
  Release date: 245 μg cm^−2 h^0.5 and 243 μg cm^−2 h^0.5
  Flux: 39 μg cm^−2 h^−1
[3]; HPC Formulation (revised 50:40:10 gel, 8% HPC, pH 5, 14:1)
  Q24: 934 μg cm^−2
[3]; Ultrez Formulation
  Release date: 274 μg cm^−2 h^0.5
  Flux: 45 μg cm^−2 h^−1
[3]; Ultrez Formulation (revised 50:40:10 gel, […] Ultrez, pH 5, 14:1)
  Q24: 1138 μg cm^−2
[3]; pH 7
  reduction of release rate, 1:1 Gel versus 1:14 Gel: 1.2 fold
Adenovirus
  IC50: 0.077 ± 0.022 µg/mL (≈ 0.0986 µM)
[4]
  HSV yield: HSV yield reduced
MRC5 cells [5]
  MRC5 cell metabolism, MTT assay: normal levels of metabolism
[6]; Digoxin 0.025 ug/ml, HIGH MOI
  VZV plaques: TNTC
[6]; Digoxin 0.025 ug/ml, INTERMEDIATE MOI
  VZV plaques: TNTC
[6]; Digoxin 0.025 ug/ml, LOW MOI, control 61
  VZV plaques: 55^
[6]; Digoxin 0.050 ug/ml, HIGH MOI
  VZV plaques: TNTC
[6]; Digoxin 0.050 ug/ml, INTERMEDIATE MOI
  VZV plaques: TNTC
[6]; Digoxin 0.050 ug/ml, LOW MOI, control 61
  VZV plaques: 21^3
[6]; Digoxin 0.100 ug/ml, HIGH MOI
  VZV plaques: 0^4
[6]; Digoxin 0.100 ug/ml, INTERMEDIATE MOI
  VZV plaques: 0^4
[6]; Digoxin 0.100 ug/ml, LOW MOI, control 61
  VZV plaques: 0^4
[6]; Frusemide at 1.0 mg/ml, Digoxin at 0.05 ug/ml
  VZV plaque formation inhibited by: 50%
[6]; High MOI (100 × Low), drug(s) at IC50
  VZV plaques: TNTC
[6]; Intermediate MOI (10 × Low), drug(s) at IC50
  VZV plaques: TNTC
[6]; Low MOI, drug(s) at IC50, Control 61
  VZV plaques: 21 and 21^5
[6]; each at respective IC50, Low MOI
  VZV plaque formation inhibited by: about 50%
MRC5 cells [7]
  replication of uninfected MRC5 cells: replicated to normal yields
[8]
  IC50: 0.02 ± 0.0075 µg/mL (≈ 0.0256 µM)
Cytomegalovirus
  IC50: 0.02 ± 0.0075 µg/mL (≈ 0.0256 µM)
[9]
  ICVT activity: potent ICVT activity
  ID50: 60 ng per ml
  comparative ‘ICVT-ivities’: as effective as Lanoxin
[9]; BHK-21, read-out: Digoxin IC50
  IC50: 0.03 µg/mL (≈ 0.0384 µM)
[9]; MRC5, read-out: Digoxin IC50
  IC50: 0.02 ± 0.0075 µg/mL (≈ 0.0256 µM)
[9]; Vero, read-out: Digoxin IC50
  IC50: 0.06 µg/mL (≈ 0.0768 µM)
[10]; 32° C
  solubility in water: relatively insoluble in water
[10]; 32 °C, organic solvent or mixture, thermodynamic from solid
  solubility at 24 h: 6270 µg/mL (≈ 8020 µM)
[10]; 40:40:20 co-solvents mix
  number of moles in saturated solution: 0.55 μmol cm^−3
  saturation limit: 433 μg cm^−3
[10]; 50:40:10 versus 40:40:20
  increase in solubility, second versus first co-solvent mix: −15 fold
[10]; ethanol, propylene glycol, PEG400, water, 32° C
  solubility in each individual solvent: highest solubility in ethanol and propylene glycol with relatively low solubility in PEG400 and water
physchem
  solubility at 24 h: 433 µg/mL (≈ 554 µM)
